Holding throughout (type): cell-based, human
For test [1], the system named is EC tube networks. The experiment in a line: 3D collagen EC tube regression assay. Particulars: for EC tube regression in screen of growth factors and cytokines: 40 and 10 ng/ml, 48 hr EC tube networks; for effect of added HDAC6 inhibitor on pharmacologic rescue: 10 μM added to FISSB2, mediators 10 ng/ml, thrombin 1 μg/ml; for effect of added HDAC6 inhibitor on pharmacologic rescue / EC tube regression (pro-regressive activity): 24 hr; for EC tube regression (pro-regressive activity): factor added to established 48 hr EC tube networks. As to the method:
(A) EC cultures with tube networks were established for 48 hr followed by the addition of indicated cytokines or thrombin (Thr) for 24 hr. IL-1β and IL-la were added at 1 ng/ml, TNFα at 3.16 ng/ml and thrombin at 1 μg/ml. Bars equal 100 or 200 μm. (B,C,D) EC tube networks were treated with the indicated cytokines and varying concentrations in dose-response analyses and in the presence or absence of thrombin added at 1 μg/ml. After 24 hr, cultures were fixed, stained and quantitated for EC lumen area per field. These curves are from a representative experiment using triplicate wells for each condition. The values (±SD) are derived from analyzed fields (n=15) where total lumen and tube area was measured. Asterisks indicate significance at p<0.05 compared to control and squares indicate significance at p<0.05 compared to the cytokine treatments alone.
ECs (passages 3-6) and pericytes (passages 3-12) were cultured as previously described^49,50. THP-1 cells were cultured in RPMI-1640-20% FCS. THP-1-T macrophages were differentiated for 72 hr. with 50 ng/ml of phorbol ester in RPMI-20% FCS, and then treated for 48 hr. in RPMI-2% FCS prior to adding TLR ligands. THP-1-VT macrophages were induced to differentiate for 72 hr. with 10^-7 M vitamin D3 (Calcitriol) in RPMI-20% FCS, followed by 48 hr. with phorbol ester in RPMI-2% FCS prior to adding TLR ligands.
(§1) ECs or ECs with pericytes were suspended in 3D collagen matrices and incubated at 37° C. in serum-free defined media as described^9,50,51. Recombinant factors or THP-1 conditioned media were added at the indicated doses to existing 48 or 72 hr. cultures with EC only or EC-pericyte tube networks, respectively. After 24 or 48 hr. for EC only or EC-pericyte tubes, respectively, cultures were fixed in 3% glutaraldehyde or 3% paraformaldehyde. EC tube areas were traced and quantitated as described. In some cases, neutralizing antibodies were added (10 μg/ml). For signaling experiments, lysates were prepared from control vs. regressing 3D cultures at different time points.

In another test the test system is EC sprouts and tubes. The experiment in a line: angiogenic sprouting assay (ECs invading from monolayer surface). The following applies: for EC tube regression by signaling-mimicking drugs: Frax486 2.5 μM, vinblastine 100 nM, 24 hr. The protocol: (A) ECs were seeded onto a monolayer surface and then allowed to invade into the gels to form tubes over a 48 hr period. At this time, cultures were then treated with IL-1β or TNFα and in the absence or presence of FIST. Cultures were fixed after 24 hr, stained and photographed to visualize the monolayer surface and the underlying sprouts and tubes. (B) Cultures were established just like in A and then the Pak2 inhibitor, Frax486 (2.5 μM) or the microtubule depolymerizing agent, vinblastine (100 nM), were added to media in the presence or absence of FIST. Cultures were fixed after 24 hr, stained and photographed. Bar equals 200 μm.
Studies to define the factors and signals that promote endothelial cell (EC) lumen and tube formation, EC sprouting and EC-pericyte tube co-assembly have been performed under serum-free defined conditions so that the functional role of individual molecules that regulate these processes can be assessed. Disclosed herein, the factors that control capillary regression are defined. Capillary regression is a process that has been largely neglected despite the likelihood that it may present a fundamental pathogenic feature of major human diseases where capillary disassembly and regression are known to occur (i.e. hypertension, diabetes, ischemic disease in many tissues, neurodegenerative diseases, and malignant cancer). […] EC tube networks were allowed to form for 48 hr. (vasculogenesis type of assay) and then added these agents in dose-response experiments, showing that they potently induce EC tube regression (at low ng levels) (FIG. 1). Real-time movies were performed to visualize these pro-regressive activities. This experimental approach has utilized assays that mimic vasculogenesis or angiogenic sprouting and these factors induce regression equally well in both assay systems. […] These studies have been performed primarily in 3D collagen matrices, but the same result is also observed in 3D fibrin matrices.

Test [2] has as its system EC-pericyte tube networks. Put plainly: EC-pericyte co-culture regression assay. The following applies: added to 72 hr co-cultures. The protocol: (A) EC-pericyte (GFP-labeled) co-cultures were established and allowed to form for 72 hr and at this time, the combination of IL-1β (10 ng/ml), TNFα (10 ng/ml) and thrombin (11 μg/ml) were added in combination compared to control and real-time movies were performed. Light and fluorescent image overlays over time are shown in representative fields. Arrowheads indicate clusters of pericytes that accumulate together during regression responses in response to these three factors in combination. After 48 hr, fixed cultures were stained for CD31 to detect ECs and fluorescence image overlays were performed. (B) The same set up was established as in A, except that each individual factor and combination of factors were added. After 48 hr, the cultures were fixed and stained for CD31. Confocal images were obtained, and fluorescence overlay images are shown.
(A) EC-pericyte co-cultures were established for 72 hr, and then were left untreated or with IL-1β (10 ng/ml), TNFα (10 ng/ml), and thrombin (11 μg/ml) in combination. After 48 hr, cultures were fixed and stained with CD31, confocal microscopy and 3D reconstruction of the images allowed for an upright and side view. (B) EC-pericyte tube networks were treated with the indicated single and combined factors and after fixation, EC tube area was quantitated. […] The values (±SD) were obtained from analyzed fields (n=15) where total lumen and tube area was measured. Asterisks indicate increased significance at p<0.05 compared to control, the squares indicate decreased significance at p<0.05 relative to the single factor conditions and the triangle indicates significance at p<0.05 relative to the double factor conditions. (C) EC-pericyte tube networks were treated with indicated combinations of factors. After 48 hr, total GFP fluorescence per well was quantitated as a measure of pericyte number since they are GFP-labeled. […] Asterisks indicate significance at p<0.05 compared to control.
as §1

Test [3] deals with EC tube networks. Put plainly: Western blots of lysates from regressing 3D EC cultures (regression signaling signature). Particulars: 24-hr. time course, compared to control EC tubes. As to the method: (A,B) ECs tube networks were treated with the indicated factors vs. control and at different time points, lysates were prepared from the 3D cultures. Western blots were performed using the different indicated antibodies. (C) Schematic illustrating findings that define a capillary regression signaling signature.
THP-T macrophages were treated with Pam3CSK4 (Pam) or LPS and conditioned medium was added at a 1:20 or 1:50 dilution, respectively, to EC tube networks. Control and IL10-treated cultures were compared with the conditioned medium treatments within the same experiment. At the indicated time points, lysates were obtained, and Western blots were performed with the indicated antibodies.
as §1
(In general: A western blot detects proteins with antibodies after separation by electrophoresis.)

Entries after “also recorded” stand apart in the source; their conditions may differ.

As for IFNγ: interferon gamma, the “EC tube regression in screen of growth factors and cytokines” value (shortened to “EC tube regression in screen”) in the test on EC tube networks [1] is given as “demonstrated significantly increased regression at both doses”.
On to `O=C(CCCCCCC(=O)Nc1ccc([C@H]2O[C@@H](CSc3nc(-c4ccccc4)c(-c4ccccc4)o3)C[C@@H](c3ccc(CO)cc3)O2)cc1)NO` [tubacin, reference compound], for which, in the test with EC tube networks [1], the “effect of added HDAC6 inhibitor on pharmacologic rescue” value is on record as “enhance the pharmacologic rescue of capillary regression induced by pro-inflammatory mediators”.
The same measure, in the same setting: then `CN1CCc2c(c3ccccc3n2Cc2ccc(C(=O)NO)cc2)C1` [tubastatin, reference compound], with “enhance the pharmacologic rescue of capillary regression induced by pro-inflammatory mediators”.
With `CC[C@]1(O)C[C@@H]2CN(CCc3c([nH]c4ccccc34)[C@@](C(=O)OC)(c3cc4c(cc3OC)N(C)[C@H]3[C@@](O)(C(=O)OC)[C@H](OC(C)=O)[C@]5(CC)C=CCN6CC[C@]43[C@@H]65)C2)C1` [vinblastine, reference compound], the “EC tube regression by signaling-mimicking drugs” value with EC sprouts and tubes is recorded as “led to marked regression”.
Turning to “IL-6: cytokine co-induced in macrophages along with IL-1 and TNF”, in the test on EC tube networks [1], the “EC tube regression (pro-regressive activity)” value was “does not have pro-regressive activity; also recorded: had no regressive effect”.
For the molecule `CCn1c(=O)c(-c2ccc(Cl)cc2Cl)cc2cnc(Nc3ccc(N4CCNCC4)c(F)c3)nc21` [Frax486, reference compound], in the test on EC sprouts and tubes, the “EC tube regression by signaling-mimicking drugs” value was “led to marked regression”.
As to “IL-1β: interleukin-1 beta, pro-inflammatory cytokine”, in test [2], the “EC tube regression in EC-pericyte co-cultures” value was “marked tube regression in response to each factor individually and, also in combination” and the pericyte numbers result is on record as “an increase in pericyte numbers”. Besides, in the test with EC sprouts and tubes (angiogenic sprouting system), the “degeneration of sprouts and EC monolayer” value is “induce degeneration of the invading sprouts, but also the EC monolayer surface where the sprouts originated”. For the same molecule, in the test with EC tube networks [1], the “EC tube regression in screen” value is reported as “more potent pro-regressive factors than the other factors described herein”; the “EC tube regression (pro-regressive activity)” value is “directly cause capillary tube collapse and regression”. Also, in the test with EC tube networks [3], the “ICAM-1 and VCAM-1 levels” value is “Strong upregulation of ICAM-1 and VCAM-1”; the “phospho-Pak2, phospho-cofilin, acetylated tubulin, procaspase3 levels” value was “decreased levels of phospho-Pak2, phospho-cofilin, acetylated tubulin and procaspase3”; the “phospho-p38, phospho-JNK, phospho-MLC2 levels” value was “increased levels of phospho-p38, phospho-JNK, and phospho-MLC2”.
Turning to IFNα, the “EC tube regression in screen” value in the test on EC tube networks [1] was “did not have any activity”.
Turning to `C[C@@H](N)[C@H]1CC[C@H](C(=O)Nc2ccncc2)CC1` [Y27632, reference compound], the “effect of adding drug to FISTSB on rescue” value in the test on EC tube networks [1] (FISTSBY vs FISTSB) was “did not enhance the ability of FISTSB to rescue capillary regression”.
As to TGFβ1: growth factor, the “EC tube regression in screen” value in the test on EC tube networks [1] was “demonstrated significantly increased regression at both doses”.
The same measure, in the same setting: then IL-13: cytokine, with “demonstrated significantly increased regression at both doses”.

B1: IL-la: IL-1 isoform, pro-regressive cytokine (protein, UniProt P01583 113-271, looked up)
Interleukin-1 alpha: SAPFSFLSNVKYNFMRIIKYEFILNDALNQSIIRANDQYLTAAALHNLDEAVKFDMGAYKSSKDDAKITVILRISKTQLYVTAQDEDQPVLLKEMPEIPKTITGSETNLLFFWETHGTKNYFTSVAHPNLFIATKQDYWVCLAGGPPSITDFQILENQA
With B1, the “EC tube regression (pro-regressive activity)” value with EC tube networks [1] is “directly cause capillary tube collapse and regression; also recorded: powerful ability to induce EC tube regression”.

B2: BMP-10: growth factor (protein, UniProt O95393 317-424, looked up)
Bone morphogenetic protein 10: NAKGNYCKRTPLYIDFKEIGWDSWIIAPPGYEAYECRGVCNYPLAEHLTPTKHAIIQALVHLKNSQKASKACCVPTKLEPISILYLDKGVVTYKFKYEGMAVSECGCR
Take B2: the “EC tube regression in screen” value in the test on EC tube networks [1] is given as “demonstrated significantly increased regression at both doses”.

B3: TGFβ2: growth factor (protein, UniProt P61812 303-414, looked up)
Transforming growth factor …: ALDAAYCFRNVQDNCCLRPLYIDFKRDLGWKWIHEPKGYNANFCAGACPYLWSSDTQHSRVLSLYNTINPEASASPCCVSQDLEPLTILYYIGKTPKIEQLSNMIVKSCKCS
With B3, the “EC tube regression in screen” value in the test on EC tube networks [1] is “demonstrated significantly increased regression at both doses”.

B4: BMP-9: growth factor (protein, UniProt Q9UK05 320-429, looked up)
Growth/differentiation factor …: SAGAGSHCQKTSLRVNFEDIGWDSWIIAPKEYEAYECKGGCFFPLADDVTPTKHAIVQTLVHLKFPTKVGKACCVPTKLSPISVLYKDDMGVPTLKYHYEGMSVAECGCR
For B4, in the test on EC tube networks [1], the “EC tube regression in screen” value is recorded as “demonstrated significantly increased regression at both doses”.

B5: Light: pro-regressive factor identified in the cytokine screen (protein, UniProt O43557 83-240, looked up)
Tumor necrosis factor ligand …: LIQERRSHEVNPAAHLTGANSSLTGSGGPLLWETQLGLAFLRGLSYHDGALVVTKAGYYYIYSKVQLGGVGCPLGLASTITHGLYKRTPRYPEELELLVSQQSPCGRATSSSRVWWDSSFLGGVVHLEAGEKVVVRVLDERLVRLRDGTRSYFGAFMV
In the case of B5, the “EC tube regression in screen” value in the test on EC tube networks [1] is reported as “demonstrated significantly increased regression at both doses”.

B6: IL-4: interleukin-4 (protein, UniProt P05112 25-153, looked up)
Interleukin-4: HKCDITLQEIIKTLNSLTEQKTLCTELTVTDIFAASKNTTEKETFCRAATVLRQFYSHHEKDTRCLGATAQQFHRHKQLIRFLKRLDRNLWGLAGLNSCPVKEANQSTLENFLERLKTIMREKYSKCSS
Take B6: the “EC tube regression in screen” value in the test on EC tube networks [1] was “demonstrated significantly increased regression at both doses”.

(Values after patent US20240122934A1, “COMPOSITIONS AND METHODS OF TREATMENT FOR INHIBITING CAPILLARY TUBE REGRESSION” (University of South Florida, priority 2019, published 2024).)
